Results from US20040044006A1, “Methods of use of quinolone compounds against pneumococcal and haemophilus bacteria” (priority 1999, published 2004).
Read-outs that look alike come from different tables or passages of the source.

Assays:
[1] = system: pneumococci (5 quinolone susceptible and 1 resistant strains); assay: Post-antibiotic effect (PAE) testing; assay type: cell-based, Streptococcus pneumoniae
Procedure: The post-antibiotic effect (PAE) (Craig, et al., V. Lorian (ed.) Antibiotics in Laboratory Medicine, Williams and Wilkins, Baltimore, pages 296-399, 1996) was determined by the viable plate count method, using Mueller-Hinton broth (MHB) supplemented with 5% lysed horse blood when testing pneumococci. […] Additionally, the one quinolone resistant strain was exposed at quinolone concentrations 5×MIC. Tubes containing 5 ml broth with antibiotic were inoculated with approximately 5×10^6 cfu/ml. Growth controls with inoculum but no antibiotic were included with each experiment. Tubes were placed in a shaking water bath at 35° C. for 1 h. At the end of the exposure period, cultures were diluted 1:1000 to remove antibiotic.
Viability counts were determined before exposure and immediately after dilution (0 h), and then every 2 h until tube turbidity reached a #1 McFarland standard. Inocula were prepared by suspending growth from an overnight blood agar plate in broth. The broth was incubated at 35° C. for 2-4 h in a shaking water bath until turbidity matched a #1 McFarland standard, and checked for viability by plate counts (Spangler, et al., Antimicrob. Agents Chemother. 41:2173-9176, 1997; Spangler, et al., Antimicrob. Agents Chemother. 42:1253-1255, 1998).
The PAE was defined as PAE=T-C; T=time required for viability counts of an antibiotic-exposed culture to increase by 1 log10 above counts immediately after dilution; C=corresponding time for growth control. For each experiment, viability counts (log10 cfu/ml) were plotted against time, and results expressed as the mean of two separate assays±S D (Craig, et al., V. Lorian (ed), Antibiotics in Laboratory Medicine, Williams and Wilkins, Baltimore, pages 296-329, 1996).

[2] = system: pneumococci with ciprofloxacin MICs ≧8 μg/ml; assay: Quinolone agar dilution MICs of 28 ciprofloxacin resistant pneumococcal strains, correlated with QRDR mutations; assay type: cell-based, Streptococcus pneumoniae
Procedure: Additionally these strains were tested for mutations in parC, gyrA, parE, and gyrB (Pan, et al. Antimicrob. Agents Chemother. 40:2321-2326, 1996) and for efflux mechanism (Brenwald, et ail., Antimicrob. Agents Chemother. 42:2032-2035, 1998).
Gemifloxacin susceptibility powder was obtained from SmithKline Beecham Laboratories, Harlow, UK. Agar dilution methodology was performed on 28 strains as described previously (M. R. Jacobs, Clin. Infect. Dis. 15: 119-127, […] and M. R. Jacobs, Rev. Med. Microbiol. 6:77-93, 1995), using Mueller-Hinton altar (BBL Microbiology Systems, Cockeysville, Md.) supplemented with 5% sheep blood. Standard quality control strains, including Streptococcus pneumoniae ATCC 49619, were included in each run of agar dilution MICs.

pneumococcal strains = assay: Microbroth dilution MICs of strains tested by time-kill and PAE; assay type: cell-based; conditions: Streptococcus pneumoniae, read-out: Microdilution MIC
Procedure, shortened: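 S. pneumoniae ATCC 49619 served as control in each run. For the 12 time-kill and 6 PAE strains, MICs came from NCCLS microbroth dilution using cation-adjusted Mueller-Hinton broth plus 5% lysed defibrinated horse blood.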

N[C@@H]1[C@H]2CN(c3nc4c(cc3F)c(=O)c(C(=O)O)cn4-c3ccc(F)cc3F)C[C@@H]12 [Trovafloxacin, trovafloxacin]
≥ 2 µg/mL: MIC ([2]; Streptococcus pneumoniae, read-out: MICs in strains with three or four QRDR mutations, 21 strains, bound holds in all 21 (ciprofloxacin, levofloxacin, sparfloxacin), 20 (grepafloxacin), 11 (trovafloxacin), 19 (gemifloxacin))
8 µg/mL: MIC (pneumococcal strains; strain 3 (S) penicillin susceptible, quinolone-resistant)
0.25 to 8 µg/mL: MIC Range ([2]; agar dilution, 28 strains with ciprofloxacin MICs ≧8.0 μg/ml)
2 µg/mL: MIC ([2]; Streptococcus pneumoniae, strain 1, ParC S79-F, ParE I460-V, GyrA S81-F, GyrB None) | MIC ([2]; Streptococcus pneumoniae, strain 1, ParC S79-F, ParE I460-V, GyrA S83-F, GyrB None) | MIC ([2]; Streptococcus pneumoniae, strain 6, ParC S79-Y, ParE I460-V, GyrA E85-K, GyrB None) | MIC ([2]; Streptococcus pneumoniae, strain 6, ParC S79-Y, ParE I460-V, GyrA E87-K, GyrB None) | MIC ([2]; Streptococcus pneumoniae, strain 16, ParC S79-F, ParE I460-V, GyrA S81-F, GyrB None) | MIC ([2]; Streptococcus pneumoniae, strain 16, ParC S79-F, ParE I460-V, GyrA S83-F, GyrB None) | MIC ([2]; Streptococcus pneumoniae, strain 17, ParC D83-N, ParE None, GyrA S81-F, GyrB None) | MIC ([2]; Streptococcus pneumoniae, strain 17, ParC D83-N, ParE None, GyrA S83-F, GyrB None) | MIC ([2]; Streptococcus pneumoniae, strain 18, ParC S79-F, ParE I460-V, GyrA S81-F, GyrB None) | MIC ([2]; Streptococcus pneumoniae, strain 18, ParC S79-F, ParE I460-V, GyrA S83-F, GyrB None) | MIC ([2]; Streptococcus pneumoniae, strain 19, ParC S79-F, ParE I460-V, GyrA S81-F, GyrB None) | MIC ([2]; Streptococcus pneumoniae, strain 19, ParC S79-F, ParE I460-V, GyrA S83-F, GyrB None) | MIC ([2]; Streptococcus pneumoniae, strain 20, ParC S79-F, ParE I460-V, GyrA E85-K, GyrB None) | MIC ([2]; Streptococcus pneumoniae, strain 20, ParC S79-F, ParE I460-V, GyrA E87-K, GyrB None) | MIC ([2]; Streptococcus pneumoniae, strain 22, ParC S79-F, ParE I460-V, GyrA S81-Y, GyrB None) | MIC ([2]; Streptococcus pneumoniae, strain 22, ParC S79-F, ParE I460-V, GyrA S83-Y, GyrB None) | MIC ([2]; Streptococcus pneumoniae, strain 23, ParC S79-Y, ParE None, GyrA S81-A, GyrB None) | MIC ([2]; Streptococcus pneumoniae, strain 23, ParC S79-Y, ParE None, GyrA S83-A, GyrB None)
1 µg/mL: MIC50 ([2]; Streptococcus pneumoniae) | MIC ([2]; Streptococcus pneumoniae, strain 9, ParC S79-Y, ParE None, GyrA None, GyrB None) | MIC ([2]; Streptococcus pneumoniae, strain 10, ParC S79-F, ParE I460-V, GyrA S81-C, GyrB None) | MIC ([2]; Streptococcus pneumoniae, strain 10, ParC S79-F, ParE I460-V, GyrA S83-C, GyrB None) | MIC ([2]; Streptococcus pneumoniae, strain 11, ParC S79-F, ParE I460-V, GyrA S81-F, GyrB None) | MIC ([2]; Streptococcus pneumoniae, strain 11, ParC S79-F, ParE I460-V, GyrA S83-F, GyrB None) | MIC ([2]; Streptococcus pneumoniae, strain 12, ParC S79-F, ParE I460-V, GyrA None, GyrB D435-N) | MIC ([2]; Streptococcus pneumoniae, strain 13, ParC S79-F, ParE I460-V, GyrA None, GyrB E474-K) | MIC ([2]; Streptococcus pneumoniae, strain 14, ParC S79-F, ParE I460-V, GyrA S81-F, GyrB None) | MIC ([2]; Streptococcus pneumoniae, strain 14, ParC S79-F, ParE I460-V, GyrA S83-F, GyrB None) | MIC ([2]; Streptococcus pneumoniae, strain 15, ParC 79-F, ParE I460-V, GyrA S83-F, GyrB None) | MIC ([2]; Streptococcus pneumoniae, strain 15, ParC S79-F, ParE I460-V, GyrA S81-F, GyrB None) | MIC ([2]; Streptococcus pneumoniae, strain 21, ParC S79-F, ParE I460-V, GyrA S81-F, GyrB None) | MIC ([2]; Streptococcus pneumoniae, strain 21, ParC S79-F, ParE I460-V, GyrA S83-F, GyrB None)
4 µg/mL: MIC90 ([2]; Streptococcus pneumoniae) | MIC (pneumococcal strains; strain 4 (S) penicillin susceptible, quinolone-resistant)
0.3 to 3.0 h: PAE ([1]; 10×MIC for 1 h, range over 5 quinolone susceptible strains)
1.3 h: PAE ([1]; 5×MIC, quinolone resistant strain)
0.25 µg/mL: MIC ([2]; Streptococcus pneumoniae, strain 2, ParC S79-Y, ParE I460-V, GyrA None, GyrB None) | MIC ([2]; Streptococcus pneumoniae, strain 3, ParC D83-N, ParE I460-V, GyrA S81-F, GyrB None) | MIC ([2]; Streptococcus pneumoniae, strain 3, ParC D83-N, ParE I460-V, GyrA S83-F, GyrB None) | MIC ([2]; Streptococcus pneumoniae, strain 4, ParC S79-F, ParE I460-V, GyrA S81-F, GyrB None) | MIC ([2]; Streptococcus pneumoniae, strain 4, ParC S79-F, ParE I460-V, GyrA S83-F, GyrB None) | MIC ([2]; Streptococcus pneumoniae, strain 5, ParC R95-C, ParE D435-N, GyrA S81-F, GyrB None) | MIC ([2]; Streptococcus pneumoniae, strain 5, ParC R95-C, ParE D435-N, GyrA S83-F, GyrB None)
0.125 µg/mL: MIC (pneumococcal strains; strain 8 (I) penicillin intermediate) | MIC (pneumococcal strains; strain 9 (R) penicillin resistant) | MIC (pneumococcal strains; strain 12 (R) penicillin resistant)
> 2 µg/mL: MIC ([2]; Streptococcus pneumoniae, read-out: MICs in strains with three or four QRDR mutations, 20 strains, bound holds in all 20 (ciprofloxacin, levofloxacin, sparfloxacin), 19 (grepafloxacin), 10 (trovafloxacin), 18 (gemifloxacin))
0.06 µg/mL: MIC (pneumococcal strains; strain 1 (S) penicillin susceptible) | MIC (pneumococcal strains; strain 2 (S) penicillin susceptible) | MIC (pneumococcal strains; strain 5 (I) penicillin intermediate) | MIC (pneumococcal strains; strain 6 (I) penicillin intermediate) | MIC (pneumococcal strains; strain 7 (I) penicillin intermediate) | MIC (pneumococcal strains; strain 10 (I)) | MIC (pneumococcal strains; strain 11 (R) penicillin resistant)
0.5 µg/mL: MIC ([2]; Streptococcus pneumoniae, strain 7, ParC None, ParE I460-V, GyrA None, GyrB None) | MIC ([2]; Streptococcus pneumoniae, strain 8, ParC S79-Y, ParE None, GyrA None, GyrB None)
